According to PubChem BioAssay AID179 (DTP/NCI, 2004):
Where “and” joins values, the source holds several entries; their conditions need not be identical. Identical values can stand only once. Calls of active or inactive are those of the source.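 Rule for the calls: active = compounds giving half or more protection of infected cells from virus-caused growth loss, again on retest; inactive = the rest.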

Test system: CEM cells HIV-1 protection, formazan growth assay
Assay: NCI AIDS Antiviral Assay
Conditions: for IC50: measured here: growth of uninfected CEM cells
In short: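 Protection of CEM cells against HIV-1 measured as cell growth via soluble formazan read-out, with five concentrations tested on both infected and uninfected cells; failure to protect may reflect toxicity.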

| SMILES | EC50 | IC50 | outcome |
| --- | --- | --- | --- |
| c1ccc(SCCP(CCP(c2ccccc2)c2ccccc2)c2ccccc2)cc1 (stereo not drawn) | > 21.9 µM | 0.355 µM |  |
| CCN(CC)C(=O)CCNC(C)Cc1c[nH]c2ccccc12 (stereo not drawn) | > 200 µM | > 200 µM |  |
| COC(=O)c1c2oc3c(C(=O)OC)cccc3nc-2cc(N)c1=O |  |  | inactive |
| Cc1nc2c(ccc3c(C)c(C)c(C)nc32)c(C)c1C.Cc1nc2c(ccc3c(C)c(C)c(C)nc32)c(C)c1C.O=C1OC(C(O)C[O-])C(O)=C1O.[Cu+] | > 12.6 µM | 0.692 µM |  |
| CCN(CC)CC1CCCCN1CC(=O)N1c2cc(Cl)ccc2NC(=O)CC1C (stereo not drawn) | 97.7 µM | > 200 µM |  |
| CC1=CC(Nc2ccc(S(=O)(=O)c3ccc(NC4=NCCNC(C)=C4)cc3)cc2)=NCCN1 | > 200 µM | > 200 µM |  |
| CCn1c(=O)c(N=O)c(N)n(CCCOC)c1=O | > 200 µM | > 200 µM |  |
| C=CCCCN(C(=O)c1ccccc1)c1ccc(C(=O)OC)o1 | > 200 µM | 50.1 µM |  |
| Nc1cc(Cl)cc(Cl)c1O | > 162 µM | 120 µM |  |
| O=c1c2cc(S(=O)(=O)Nc3ccc(Cl)cc3Cl)ccc2ncn1NS(=O)(=O)c1cccc2ccccc12 | > 200 µM | 33.1 µM |  |
| O=C(O)Cc1cc(=O)oc2cc(O)c(Cl)cc12 | > 708 µM | > 708 µM |  |
| COc1ccccc1C(=O)c1c(NCc2ccccc2)c(=O)c1=O | > 200 µM | 93.3 µM |  |
| COCCNC1CCC(=O)c2[nH]c3ccccc3c21 (stereo not drawn) | > 200 µM | > 200 µM |  |
| Cc1ccc(N=C2C(c3ccccc3)=C(SC3=C(c4ccccc4)C(=Nc4ccc(C)cc4)c4ccccc43)c3ccccc32)cc1 | > 200 µM | 174 µM |  |
| CC(C)CCC[C@@H](C)C1CCC2[C@@H]3CC(OS(=O)(=O)O)C4C[C@@H](OC5OC(CO)C(O)C(O)C5O)CC[C@]4(C)C3CC[C@@]21C (stereo partly drawn) | > 37.2 µM | 6.03 µM |  |
| CN1CCN(CCn2c3c4ccccc4ccc3c3oc(=O)c4ccccc4c32)CC1 | > 100 µM | 3.02 µM |  |
| c1ccc(C2C3=C(Nc4ncnn42)c2ccccc2C3)cc1 (stereo not drawn) | > 12.6 µM | 7.24 µM |  |
| NC1=NC(=O)[C@H](Cc2c[nH]c3ccccc23)N1C(=O)OCc1ccccc1 | > 200 µM | 120 µM |  |
| CCOP(=O)(CCn1cc(C)c(=O)[nH]c1=O)OCC | > 871 µM | > 871 µM |  |
| CCOC(=O)c1oc2ccc(OC)c3c2c1CCC3 |  |  | inactive |
| CC(C)(C)N=C(NO)c1ccccc1 |  |  | inactive |

| SMILES | EC50 | IC50 | outcome |
| --- | --- | --- | --- |
| N#C/C(=C\c1cccc(C#N)c1)C(=O)c1ccccc1 | > 115 µM | 15.8 µM |  |
| COC1N(C2CC(F)C(CO)O2)C(=O)NC(=O)C1(C)Br (stereo not drawn) | 0.00525 µM and 0.00316 µM | 5.62 µM and 6.03 µM |  |
| COC(=O)CC(C(C(=O)OC)C(=O)OC)N1C(=O)OCC1c1ccccc1 (stereo not drawn) | > 135 µM | > 135 µM |  |
| COc1ccc2c(c1)[n+]([O-])c(-c1ccc([N+](=O)[O-])cc1)c(N)[n+]2[O-] |  |  | inactive |
| CCOC(=O)c1ccc(N=C2S/C(=C\C(=S)Nc3ccccc3)N(c3ccccc3)C2=Nc2ccc(C(=O)OCC)cc2)cc1 | > 200 µM | > 200 µM |  |
| CN/N=C(/CC(=O)c1sc(NNC(C)=O)nc1C)C(=O)Nc1ccc(OC)cc1OC | > 79.4 µM | > 79.4 µM |  |
| CS(=O)(=O)N1CC(CCl)c2ccc(O)cc21 (stereo not drawn) | > 200 µM | 1.86 µM |  |
| Cc1cc(C)n(C2OC(CO)C(O)C(O)C2O)c(=S)c1C#N (stereo not drawn) | > 200 µM | > 200 µM |  |
| CC1=N/C(=C\c2cccc(F)c2)C(=O)O1 | > 126 µM | > 126 µM |  |
| CC(CCCOC(c1ccccc1)(c1ccccc1)c1ccccc1)OC(=O)Nc1cc([N+](=O)[O-])cc([N+](=O)[O-])c1 (stereo not drawn) | > 12.9 µM | > 12.9 µM |  |
| N#CC(O)CCOCc1ccccc1 (stereo not drawn) | > 200 µM | 53.7 µM |  |
| CC(C(=O)N1C(=O)N(C(=O)C(C)C(O)c2ccccc2)C(c2ccccc2)C1c1ccccc1)C(O)c1ccccc1 (stereo not drawn) | > 200 µM | 28.2 µM |  |
| N.N.NCCCCCN.O=C([O-])CC(=O)[O-].O=C([O-])CC(=O)[O-].[Pt+4].[Pt+4] | > 2140 µM | 6.76 µM |  |
| O=Nc1ccc2ccccc2c1N=Nc1ccccc1C(=O)O | > 200 µM | 182 µM |  |
| CC1Cc2c(N)nc(N3CCOCC3)nc2NC1=O (stereo not drawn) |  |  | inactive |
| O=C(O)CCC(=O)OCCNCCOC(=O)CCC(=O)O |  |  | inactive |
| COc1ccc(C2c3cc4c(cc3OC(O)(CO)C2C(=O)O)OCO4)c(OC)c1OC (stereo not drawn) (tested in a mixture with another compound) |  |  | inactive |
| Cc1cc(S(=O)(=O)Nc2nnc3c(Cl)cc(C(F)(F)F)cn23)c(S)cc1Cl | 70.8 µM | 380 µM |  |
| CC1(C)CC[C@]2(C(=O)O)CCC3(C)C(=CCC4[C@@]5(C)CC[C@H](OC6OCC(O)C(O)C6OC6OC(CO)C(O)C(O)C6O)C(C)(C)C5CC[C@]43C)C2C1 (stereo partly drawn) |  |  | inactive |
| OC(C1CCCCCCCCCC1)C(O)C1CCCCCCCCCC1 (stereo not drawn) | > 200 µM | > 200 µM |  |
| O=C1c2ccccc2CC1C1(O)C(=O)Nc2c(Cl)cc(Cl)cc21 (stereo not drawn) | > 102 µM | > 102 µM |  |

| SMILES | EC50 | IC50 | outcome |
| --- | --- | --- | --- |
| O=[N+]([O-])c1ccc2[nH]c(=S)n(/C=C(/c3ccc(Cl)cc3)S(=O)(=O)Cc3ccc(Cl)cc3)c2c1 | > 200 µM | 102 µM |  |
| Nc1nc(N)c2cc(-c3ccccc3)cnc2n1 | > 200 µM | 15.8 µM |  |
| O=S(=O)(SC1=NCCN1)c1ccc2ccccc2c1 | 22.9 µM | 29.5 µM |  |
| Cc1ccc(Cc2n[nH]c(=O)n2/N=C\CC/C=N\n2c(Cc3ccc(C)cc3)n[nH]c2=O)cc1 | > 200 µM | 120 µM |  |
| N#C/C(=C\NC(=S)NCc1ccccc1)c1nc2ccccc2s1 | > 200 µM | 47.9 µM |  |
| O=c1c2ccccc2c(=O)c2c1c1c(=O)c3ccccc3c(=O)c1c1c(=O)c3ccccc3c(=O)c21 | > 200 µM | > 200 µM |  |
| OCCNCCNc1c2ccccc2nc2cc(Cl)ccc12 |  |  | inactive |
| CC1OC(n2cc(C(F)(F)F)c(=O)[nH]c2=O)C=CC1=O (stereo not drawn) | > 447 µM | 3.39 µM |  |
| CC(=O)NNc1nc(C)c(C(=O)NNC(=O)C(=O)Nc2c(Cl)cc([N+](=O)[O-])cc2Cl)s1 | > 74.1 µM | > 74.1 µM |  |
| O=C(/C=C/C1C(=O)NC(=O)NC1=O)CC(=O)C(=O)Nc1cc(Cl)c(Cl)cc1Cl | > 209 µM | > 209 µM |  |
| CC(C)SSC(=O)N1CCCC1C(=O)O (stereo not drawn) | > 200 µM | > 200 µM |  |
| COc1ccc(/C=C/C(=N/NC(=O)N/N=C(/C=C/c2ccc(OC)cc2)C(C)C)C(C)C)cc1 | > 200 µM | 37.2 µM |  |
| CC(C)(C)OC(=O)NC(Cc1ccc(O)cn1)C(=O)O (stereo not drawn) | > 200 µM | > 200 µM |  |
| COC1N(C2C=CC(CO)O2)C(=O)NC(=O)C1(C)Cl (stereo not drawn) | 468 µM | 1020 µM |  |
| Cc1ccc(S(=O)(=O)n2cc(C#N)c(C#N)c2)cc1 | > 200 µM | 57.5 µM |  |
| O=C(Cc1nc2ccccc2s1)C(=O)Nc1ccc(Cl)cc1 |  |  | inactive |
| C=C1C(C)C2C(Cc3ccccc3)NC(=O)C23C(OC(C)=O)C=CC(C)(O)C(=O)C(C)C/C=C/C3C1O (stereo not drawn) | > 20 µM | 0.17 µM |  |
| Cc1cccc(N2C(=O)C(=O)C(c3nc4ccccc4s3)/C(=N/NC(=S)NN)C2=O)c1C (stereo not drawn) | > 269 µM | > 269 µM |  |
| CC1C(=O)N(C)C2(CO)C(=O)O[C@H](C)C12O (stereo partly drawn) |  |  | inactive |
| ClC1=C(Cc2ccccc2)Cc2ccc3c(c21)CCC3 | > 200 µM | > 200 µM |  |
